Measurements reported in patent US20130136772A1, “REGULATION OF IMMUNE RESPONSE BY COLOCYNTHIN AND/OR ITS DERIVATIVES” (priority 2010, published 2013).

System: vascular permeability
Test: Acetic acid-induced vascular permeability
Type: in vivo, mice
Conditions: for DYE CONCENTRATION: Evans blue, acetic acid i.p.
Description: Acetic acid-induced increased vascular permeability in mouse model is a capillary permeability assay. Reduction in the increased peritoneal vascular permeability indicates the suppression of the vascular response in the process of acute inflammation.
Mice were injected with […] of Evans blue dye (0.25% w/v in normal saline) intravenously after 30 min of oral administration of the drug. Fifteen minutes later, the mice were injected intraperitoneally (1 ml/100 g of body weight) with freshly prepared 0.6% of acetic acid (v/v) in normal saline. After 30 min of acetic acid injection, the peritoneal cavities were washed with 5 ml of heparinised sterile normal saline and centrifuged (3000×g) for 10 min Absorbance of the supernatant was measured at 610 nm using a spectrophotometer (Table 3) [Whittle B. A. The use of changes in capillary permeability in mice to distinguish between narcotic and non-narcotic analgesics. Brit J Pharmacol 1964; 2: 246-253].

Q: CC(=O)OC(C)(C)/C=C/C(=O)[C@](C)(O)[C@H]1[C@H](O)C[C@@]2(C)[C@@H]3CC=C4[C@@H](C=C(O[C@@H]5O[C@H](CO)[C@@H](O)[C@H](O)[C@H]5O)C(=O)C4(C)C)[C@]3(C)C(=O)C[C@]12C [AD-B-63B, 2-O-β-D-glucopyranosyl cucurbitacin E] was tested. Which “percent reduction of dye concentration” value (1 mg/kg p.o.) did it give?
A: Its value is “(10.71%↓)”.

Q: And the “DYE CONCENTRATION” value (1 mg/kg p.o.)?
A: Its value is 0.50 ± 0.02 μg/25 g mouse.

Q: What about the “percent reduction of dye concentration” value (5 mg/kg p.o.) of the same compound?
A: The value was 32.14%.

Q: And the “DYE CONCENTRATION” value (5 mg/kg p.o.)?
A: The value was 0.38 ± 0.02 μg/25 g mouse.

Q: What about the “percent reduction of dye concentration” value (5 mg/kg p.o., listed as AD-B-63-B) of the same compound?
A: Its value is “(32.14%↓)”.

Q: And the “percent reduction of dye concentration” value (10 mg/kg p.o.)?
A: The value was 35.71%.

Q: What about the “DYE CONCENTRATION” value (10 mg/kg p.o.) of the same compound?
A: Its value is 0.36 ± 0.02 μg/25 g mouse.

Q: What about the “percent reduction of dye concentration” value (10 mg/kg p.o., listed as AD-B-63-B) of the same compound?
A: Its value is “(35.71%↓)”.
